Results: publication PMC5995442, “Drug discovery with an RBM20 dependent titin splice reporter identifies cardenolides as lead structures to improve cardiac filling” (PLoS ONE, 2018)
“Also recorded” adds a separate entry of the source. Like-named read-outs stand apart in the source and are kept apart here.

Experiments:
[1] = tested on: RBM20 dependent titin PEVK4-13 splicing reporter; experiment: Dual luciferase splicing reporter assay (DLR assay), RBM20 co-transfected; type: cell-based, human; conditions: for IC50: Homo sapiens
Description: (§1) The objective of our study was to identify and evaluate small molecules with the potential to modulate alternative splicing via an unbiased chemical high-throughput screening approach. Using transient transfection of a dual luciferase splicing reporter assay (DLR-assay) in HEK293.EBNA cells and a RBM20 expression construct, we investigated >34.000 substances for their effect on alternative exon exclusion from our RBM20 dependent titin PEVK4-13 splicing reporter. For the primary screen (pilot screen), each compound was tested at 10 μM (single point) and compared to an untreated control. Positive hits leading to differential exon usage (exceeding three standard deviations) were picked for independent validation in 9 serial 2-fold dilutions starting at 20 μM. Compounds that produced a concentration dependent effect were validated manually in the 96-well format and cytotoxicity was evaluated. To minimize the detection of false positives, we excluded compounds with structural homology to each luciferase’s natural substrate. To determine the EC50 of candidates we calculated dose response curves using a non-linear least-squares fitting routine available within the GNUPLOT package (accessible online: http://ic50.tk/index.html). […] Compounds that produced a concentration depend effect in the DLR-assay and altered the alternative transcript levels were regarded as validated alternative splicing modulators.
(§2) Cells transfected were at a confluency of 50-60%.
(§3) 5000 HEK293.EBNA cells were seeded in clear bottom, white 384-well plates (Corning by Sigma-Aldrich Chemie GmbH, Munich, Germany) using an automated cell dispenser (Biotek, Bad Friedrichshall, Germany). 24 h after cell seeding the expression plasmids were delivered using a Freedom EVO® robotic workstation (TECAN, Maennedorf, Switzerland) equipped with a MultiChannel Arm™. Cells were transiently transfected with 45 ng plasmid DNA ([…] and 40 ng RBM20 or 24 ng of the negative control pcDNA3.1 ad 45 ng with bacterial expression plasmid pBSSK). Compounds were added to the plates the following day using the same robotic platform. Luciferase activity was determined using Dual-Glo® Luciferase Assay System (Promega GmbH, Mannheim, Germany) on an Infinite® M1000 Pro (TECAN, Maennedorf, Switzerland) plate reader around 60 hours post-transfection. Assay robustness was evaluated by calculation z’ scores using an online tool provided by the Screening Unit at FMP Berlin (http://www.screeningunit-fmp.net/tools/z-prime.php).

HEK293.EBNA cells = experiment: Cell viability, resazurin based staining (PrestoBlue); design: species or system human; conditions: for IC50: Homo sapiens, HEK293-EBNA
Description: as §2

in vitro = conditions: human
Description: (§4) For transfection 25000 cells/well were seeded on 96-well Nunc F96 MicroWell™ plates (Life Technologies GmbH, Darmstadt, Germany) and transfected with a total of 200 ng of plasmid DNA of which 1 ng was splice reporter plus a corresponding amount of RBM20, RBFOX1 or control plasmid (pcDNA3.1) in a 20x molar excess. To deliver plasmid DNA we used the 40 kDa linear polyethylenimine (Polysciences Europe GmbH, Hirschberg, Germany) at a 1:3 ratio (DNA:PEI40). Cells transfected were at a confluency of 50-60%. Compounds were applied 24 h post-transfection at a final DMSO concentration of 1%. Luciferase activity was measured 60 hours post-transfection using the Dual-Luciferase® Reporter Assay System (Promega GmbH, Mannheim, Germany) on an Infinite® M200 Pro (TECAN, Maennedorf, Switzerland) plate reader. Ratios of firefly to renilla luciferase activity were normalized to the control (pcDNA3.1) without the splicing factor expression construct. Cell viability was measured 60 h post-transfection using a resazurin based staining of metabolically active cells (PrestoBlue®, Life Technologies GmbH, Darmstadt, Germany).
(§5) To evaluate the specificity of the splice effect, we generated an independent splice reporter based on formin-like 3 (FMNL3) and its splice factor RBFOX1 (S5 Fig). […] To exclude an unspecific effect of cell death on RBM20 dependent splicing, we used the steroidal homolog digitonin to induce cell death.

[2] = tested on: RBFOX1 dependent splicing of FMNL3; experiment: cells
Description: as §4, §5

RBM20 protein levels = experiment: RBM20 protein expression by immunoblot in co-transfected HEK293 cells; type: cell-based, human; conditions: 0.235 μM digoxin, co-transfected HEK293 cells
Description: For immunodetection, HEK293.EBNA samples were harvested by rinsing them of the cell culture substrate using PBS at 37°C and subsequently used for downstream processing or snap frozen in liquid nitrogen. For protein extraction samples were suspended in RIPA buffer (50 mM Tris pH 8.0, 150 mM NaCl, 1% NP-40, 0.25% sodium deoxycholate, 1.0 mM EDTA; 0.1% SDS) and lysed via sonication with 20 bursts at 70% energy using a VialTweeter (Hielscher Ultrasonics GmbH, Teltow, Germany). Protein concentration was estimated after 20’ precipitation of cell debris at 13,000xg for 20 min at 4°C using BCA assay (Life Technologies GmbH, Darmstadt, Germany [23225]). Samples were kept cool at any time. Lysates were separated by SDS-PAGE [14] and blotted on PVDF membranes. Blotted antigens were probed with mouse anti-c-myc 9E10 ([M5546], Sigma-Aldrich Chemie GmbH, Munich, Germany) tag antibody at 1:2000 and detected using a sheep anti-mouse IgG-HRP (GE Healthcare Europe GmbH, Freiburg, Germany [NA9310V]) conjugate 1:5000 follow by visualization with AceGlow™ (VWR PEQL37) on a FUSION FX7 CCD camera system (Vilber Lourmat Deutschland GmbH, Eberhardzell, Germany).

[3] = tested on: titin minigene TTN Ex241-43 transcripts; experiment: RT-PCR / RT-qPCR of transcripts from titin minigene TTN Ex241-43 (I96-98); type: cell-based, human
Description: The objective of our study was to identify and evaluate small molecules with the potential to modulate alternative splicing via an unbiased chemical high-throughput screening approach. Using transient transfection of a dual luciferase splicing reporter assay (DLR-assay) in HEK293.EBNA cells and a RBM20 expression construct, we investigated >34.000 substances for their effect on alternative exon exclusion from our RBM20 dependent titin PEVK4-13 splicing reporter. For the primary screen (pilot screen), each compound was tested at 10 μM (single point) and compared to an untreated control. Positive hits leading to differential exon usage (exceeding three standard deviations) were picked for independent validation in 9 serial 2-fold dilutions starting at 20 μM. Compounds that produced a concentration dependent effect were validated manually in the 96-well format and cytotoxicity was evaluated. To minimize the detection of false positives, we excluded compounds with structural homology to each luciferase’s natural substrate. To determine the EC50 of candidates we calculated dose response curves using a non-linear least-squares fitting routine available within the GNUPLOT package (accessible online: http://ic50.tk/index.html). We evaluated the effect on splice activity on the RNA level by RT-qPCR of isoforms generated from a titin minigene containing TTN Ex241-43 (corresponding to TTN I-band exon I96-98) in the presence of the potential splice modulators. […]
Total RNA from HEK293.EBNA cells was extracted using RNeasy Micro Kit (Qiagen, Hilden, Germany) according to the manufacturer’s instructions. […] Quantitative RT-PCR was performed using SYBRGreen master mix (Applied Biosystems by Thermo Fisher Scientific Inc., USA) on a 7900 HT RT-cycler (Applied Biosystems by Thermo Fisher Scientific, Inc., USA). […] To quantification gene expression, we used the ΔΔCT method normalized to 18S or to the alternative transcripts generated from the splicing reporter. PSI values were calculated as ratio of unspliced and spliced reporter transcript. […]

[4] = target: Na+/K+ ATPase human erythrocytes; design: method as in PMID 11072868; conditions: cited from earlier work
[5] = Dual luciferase splicing reporter assay (DLR assay), RBM20 co-transfected; type: cell-based, human; conditions: human; RBM20 titin reporter, N = 3; read-out: cell viability below which the splice reporter readout is affected
Description: as §1, §2, §3

[6] = HEK293 cells, 60 h post-transfection, RBM20/titin reporter transfected, read-out: Viability IC50

| Structure (SMILES) | Splicing Hill Coeff. [1] | effect on RBM20-mediated titin splicing (in words) [1] | IC50 ([1]; HEK293, read-out: IC50 Splicing HEK293 cells) [nM] | IC50 (HEK293.EBNA cells; HEK293, read-out: IC50 viability (half-maximal lethal dose)) [nM] | IC50 (HEK293.EBNA cells; [6]) [nM] | Viability Hill Coeff. (HEK293.EBNA cells; dose response fit, head prints [μM], fits IC50 only) | Viability Max (HEK293.EBNA cells; fit maximum of relative viability, head prints [μM], fits IC50 only) | viability at 36 h (in vitro) [%] | IC50 ([2]; Homo sapiens, HEK293, read-out: FMNL3/RBFOX1 Splicing IC50, FMNL3 exons 25-26 reporter co-transfected with RBFOX1, HEK293) [nM] | effect on FMNL3 splicing (in words) ([2]; concentrations of up to 20x the half-maximal lethal dose) | RBM20 protein levels reduced to (RBM20 protein levels) [%] | intron retention / mRNA maturation (in words) ([3]; HEK293 transfected with RBM20 and minigene I96-98) | IC50 [4] [nM] | viability at 36 h [5] [%] | effect on RBM20-mediated titin splicing (in words) ([1]; DLR assay, HEK293) | IC50 ([1]; FLuc/RLuc ratio, HEK293 cells, 96-well format, inset table of figure, read-out: Splicing IC50) [nM] | effect on splicing on the mRNA level (in words) ([3]; RT-PCR of minigene, HEK293) |
| --- | --- | --- | --- | --- | --- | --- | --- | --- | --- | --- | --- | --- | --- | --- | --- | --- | --- |
| C[C@H]1O[C@@H](O[C@H]2[C@@H](O)C[C@H](O[C@H]3[C@@H](O)C[C@H](O[C@H]4CC[C@@]5(C)[C@H](CC[C@@H]6[C@@H]5C[C@@H](O)[C@]5(C)[C@@H](C7=CC(=O)OC7)CC[C@]65O)C4)O[C@@H]3C)O[C@@H]2C)C[C@H](O)[C@@H]1O [Digoxin] | 2.8711 ± 0.6588 | efficiently inhibit RBM20 mediated splicing | 153 | 132 | 132 ± 6.6 | 2.2906 ± 0.2256 | 1.0089 ± 0.0119 | < 30 | 2600 | not affected | 10 | does not cause intron retention | 0.39 | – | – | – | – |
| C[C@@H]1CC[C@@]2(OC1)O[C@H]1[C@@H](O)[C@H]3[C@@H]4CC[C@H]5C[C@@H](O[C@@H]6O[C@H](CO)[C@H](O[C@@H]7O[C@H](CO)[C@@H](O)[C@H](O[C@@H]8OC[C@@H](O)[C@H](O)[C@H]8O)[C@H]7O[C@@H]7O[C@H](CO)[C@H](O)[C@H](O[C@@H]8O[C@H](CO)[C@@H](O)[C@H](O)[C@H]8O)[C@H]7O)[C@H](O)[C@H]6O)[C@H](O)C[C@]5(C)[C@H]4CC[C@]3(C)[C@H]1[C@@H]2C [Digitonin] | – | – | – | – | 2670 ± 212 | – | – | – | – | – | – | – | – | < 20 | little effect at the highest doses only; also recorded: do not interfere with RBM20 dependent splicing | 14100 ± 3980 | no effect on the mRNA level |
